Source: patent US4882313A, “Carboxamide derivatives of glycopeptides” (SmithKline Beckman Corporation, priority 1987, dated 1989)

Experiments:
Staphylococcus aureus = assay: standard microtiter assay, minimum inhibitory concentration; format: cell-based; details: for minimum inhibitory concentration of antibiotic, Test Organism 1: Test Organism 1, strain of Staphylococcus aureus; for minimum inhibitory concentration of antibiotic, Test Organism 2: Test Organism 2, strain of Staphylococcus aureus; for minimum inhibitory concentration of antibiotic, Test Organism 3: Test Organism 3, strain of Staphylococcus aureus; for minimum inhibitory concentration of antibiotic, Test Organism 4: Test Organism 4, strain of Staphylococcus aureus; for minimum inhibitory concentration of antibiotic, Test Organism 5: Test Organism 5, strain of Staphylococcus aureus
Excerpt: (§1) Representative results of standard microtiter assays are reported in Table 1 which follows, as the minimum inhibitory concentration of antibiotic (mg/ml). In Table 1, test organisms 1-5 were different strains of Staphylococcus aureus; 6, 8, 11, 13 and 14 were different strains of Staphylococcus epidermidis; 7 was a Staphylococcus haemolyticus; 9 and 10 were different strains of Streptococcus faecalis; and 12 was a Staphylococcus saprophyticus.

[1] = tested on: Staphylococcus haemolyticus; assay: as above; format: cell-based; details: Test Organism 7, Staphylococcus haemolyticus
Excerpt: as §1

[2] = tested on: Staphylococcus saprophyticus; assay: as above; format: cell-based; details: Test Organism 12, Staphylococcus saprophyticus
Excerpt: as §1

Streptococcus faecalis = assay: as above; format: cell-based; details: for minimum inhibitory concentration of antibiotic, Test Organism 9: Test Organism 9, strain of Streptococcus faecalis; for minimum inhibitory concentration of antibiotic, Test Organism 10: Test Organism 10, strain of Streptococcus faecalis
Excerpt: as §1

[3] = tested on: Staphylococcus epidermidis; assay: as above; format: cell-based; set-up: minimum inhibitory concentration of antibiotic, Test Organism 8: unit not given here; details: for minimum inhibitory concentration of antibiotic, Test Organism 6: Test Organism 6, strain of Staphylococcus epidermidis; for minimum inhibitory concentration of antibiotic, Test Organism 11: Test Organism 11, strain of Staphylococcus epidermidis; for minimum inhibitory concentration of antibiotic, Test Organism 13: Test Organism 13, strain of Staphylococcus epidermidis; for minimum inhibitory concentration of antibiotic, Test Organism 14: Test Organism 14, strain of Staphylococcus epidermidis; for minimum inhibitory concentration of antibiotic, Test Organism 8: Test Organism 8, strain of Staphylococcus epidermidis
Excerpt: as §1

[4] = pI (analytical data, Table 2); format: physicochemical
Excerpt: Using substantially the procedures of both Examples 1 and 2, the compounds of Examples 3-15 were obtained by using the appropriate glycopeptide and amine starting materials.

SMILES | pI [4] | minimum inhibitory concentration of antibiotic, Test Organism 1 (Staphylococcus aureus) | minimum inhibitory concentration of antibiotic, Test Organism 2 (Staphylococcus aureus) | minimum inhibitory concentration of antibiotic, Test Organism 3 (Staphylococcus aureus) | minimum inhibitory concentration of antibiotic, Test Organism 4 (Staphylococcus aureus) | minimum inhibitory concentration of antibiotic, Test Organism 5 (Staphylococcus aureus) | minimum inhibitory concentration of antibiotic, Test Organism 7 [1] | minimum inhibitory concentration of antibiotic, Test Organism 12 [2] | minimum inhibitory concentration of antibiotic, Test Organism 9 (Streptococcus faecalis) | minimum inhibitory concentration of antibiotic, Test Organism 6 [3] | minimum inhibitory concentration of antibiotic, Test Organism 11 [3] | minimum inhibitory concentration of antibiotic, Test Organism 13 [3] | minimum inhibitory concentration of antibiotic, Test Organism 14 [3] | minimum inhibitory concentration of antibiotic, Test Organism 10 (Streptococcus faecalis) | minimum inhibitory concentration of antibiotic, Test Organism 8 [3]
CNC1C(=O)NC2C(=O)NC(C(=O)NC3C(=O)NC4C(=O)NC(C(=O)NC(C(N)=O)c5cc(O)cc(OC6OC(CO)C(O)C(O)C6O)c5-c5cc4ccc5O)C(O)c4cc(Cl)c(c(Cl)c4)Oc4cc3cc(c4O)Oc3ccc(cc3Cl)C2O)c2cc(cc(O)c2Cl)Oc2cc1ccc2O (centres unmarked) [Compound 2n, Ardacin mannosylaglycone amide] | 7.1 | 200 µg/mL | 800 µg/mL | 100 µg/mL | 3100 µg/mL | 400 µg/mL | 1600 µg/mL | 1600 µg/mL | 200 µg/mL | 1600 µg/mL | 6300 µg/mL | 1600 µg/mL | 1600 µg/mL | – | –
CCCCCCCCCC(=O)NC1C(Oc2c3cc4cc2Oc2c(Cl)cc(cc2Cl)C(O)C2NC(=O)C(NC(=O)C4NC(=O)C4NC(=O)C(NC(=O)C(NC)c5ccc(O)c(c5)Oc5cc(O)c(Cl)c4c5)C(O)c4ccc(c(Cl)c4)O3)c3ccc(O)c(c3)-c3c(OC4OC(CO)C(O)C(O)C4O)cc(O)cc3C(C(=O)NCCN)NC2=O)OC(C(=O)NCCN)C(O)C1O (centres unmarked) [Compound 2m, Ardacin A-di-(2-aminoethylamide)] | 8.4 | 100 µg/mL | 100 µg/mL | 100 µg/mL | 800 µg/mL | 400 µg/mL | 800 µg/mL | 400 µg/mL | 100 µg/mL | 1600 µg/mL | 800 µg/mL | 200 µg/mL | – | 100 µg/mL | 0.1
CNC1C(=O)NC2C(=O)NC(C(=O)NC3C(=O)NC4C(=O)NC(C(=O)NC(C(=O)NCCCCCCN)c5cc(O)cc(O)c5-c5cc4ccc5O)C(O)c4cc(Cl)c(c(Cl)c4)Oc4cc3cc(c4O)Oc3ccc(cc3Cl)C2O)c2cc(cc(O)c2Cl)Oc2cc1ccc2O (centres unmarked) [Compound 2h, Ardacin aglycone-(6-aminohexyl amide)] | 7.7 | 100 µg/mL | 100 µg/mL | 400 µg/mL | 100 µg/mL | 100 µg/mL | 200 µg/mL | 200 µg/mL | 100 µg/mL | 100 µg/mL | 200 µg/mL | 100 µg/mL | – | 100 µg/mL | 0.1
CCCCCCCCCC(=O)NC1C(Oc2c3cc4cc2Oc2c(Cl)cc(cc2Cl)C(O)C2NC(=O)C(NC(=O)C4NC(=O)C4NC(=O)C(NC(=O)C(NC)c5ccc(O)c(c5)Oc5cc(O)c(Cl)c4c5)C(O)c4ccc(c(Cl)c4)O3)c3ccc(O)c(c3)-c3c(OC4OC(CO)C(O)C(O)C4O)cc(O)cc3C(C(=O)NCCO)NC2=O)OC(C(=O)NCCO)C(O)C1O (centres unmarked) [Compound 2l, Ardacin A-di-(2-hydroxyethyl amide)] | 7.3 | 200 µg/mL | 200 µg/mL | 200 µg/mL | 400 µg/mL | 400 µg/mL | 800 µg/mL | 800 µg/mL | 100 µg/mL | 1600 µg/mL | 800 µg/mL | 200 µg/mL | – | 100 µg/mL | 0.4

Further lines, with some results ahead:

pI [4] | SMILES | minimum inhibitory concentration of antibiotic, Test Organism 1 (Staphylococcus aureus) | minimum inhibitory concentration of antibiotic, Test Organism 2 (Staphylococcus aureus) | minimum inhibitory concentration of antibiotic, Test Organism 3 (Staphylococcus aureus) | minimum inhibitory concentration of antibiotic, Test Organism 4 (Staphylococcus aureus) | minimum inhibitory concentration of antibiotic, Test Organism 5 (Staphylococcus aureus) | minimum inhibitory concentration of antibiotic, Test Organism 7 [1] | minimum inhibitory concentration of antibiotic, Test Organism 12 [2] | minimum inhibitory concentration of antibiotic, Test Organism 9 (Streptococcus faecalis) | minimum inhibitory concentration of antibiotic, Test Organism 6 [3] | minimum inhibitory concentration of antibiotic, Test Organism 11 [3] | minimum inhibitory concentration of antibiotic, Test Organism 13 [3] | minimum inhibitory concentration of antibiotic, Test Organism 14 [3] | minimum inhibitory concentration of antibiotic, Test Organism 10 (Streptococcus faecalis) | minimum inhibitory concentration of antibiotic, Test Organism 8 [3]
7.1 | CNC1C(=O)NC2C(=O)NC(C(=O)NC3C(=O)NC4C(=O)NC(C(=O)NC(C(=O)NCCO)c5cc(O)cc(O)c5-c5cc4ccc5O)C(O)c4cc(Cl)c(c(Cl)c4)Oc4cc3cc(c4O)Oc3ccc(cc3Cl)C2O)c2cc(cc(O)c2Cl)Oc2cc1ccc2O (centres unmarked) [Compound 2d, Ardacin aglycone-(2-hydroxyethyl amide)] | 50 µg/mL | 50 µg/mL | 50 µg/mL | 200 µg/mL | 200 µg/mL | 800 µg/mL | 400 µg/mL | 200 µg/mL | 400 µg/mL | 800 µg/mL | 200 µg/mL | 400 µg/mL | – | –
7.1 | CNC1C(=O)NC2C(=O)NC(C(=O)NC3C(=O)NC4C(=O)NC(C(=O)NC(C(N)=O)c5cc(O)cc(O)c5-c5cc4ccc5O)C(O)c4cc(Cl)c(c(Cl)c4)Oc4cc3cc(c4O)Oc3ccc(cc3Cl)C2O)c2cc(cc(O)c2Cl)Oc2cc1ccc2O (centres unmarked) [Compound 2c, Ardacin aglycone amide] | 200 µg/mL | 200 µg/mL | 400 µg/mL | 400 µg/mL | 200 µg/mL | 800 µg/mL | 200 µg/mL | 200 µg/mL | 400 µg/mL | 400 µg/mL | 400 µg/mL | 200 µg/mL | 400 µg/mL | 0.4
7.7 | CNC1C(=O)NC2C(=O)NC(C(=O)NC3C(=O)NC4C(=O)NC(C(=O)NC(C(=O)NCCN(C)C)c5cc(O)cc(O)c5-c5cc4ccc5O)C(O)c4cc(Cl)c(c(Cl)c4)Oc4cc3cc(c4O)Oc3ccc(cc3Cl)C2O)c2cc(cc(O)c2Cl)Oc2cc1ccc2O (centres unmarked) [Compound 2g, Ardacin aglycone-(2-N,Ndimethylaminoethyl amide)] | 200 µg/mL | 100 µg/mL | 200 µg/mL | 400 µg/mL | 100 µg/mL | 200 µg/mL | 100 µg/mL | 100 µg/mL | 200 µg/mL | 200 µg/mL | 50 µg/mL | 50 µg/mL | 200 µg/mL | 0.2
7.7 | CNCCNC(=O)C1NC(=O)C2NC(=O)C(NC(=O)C3NC(=O)C4NC(=O)C(NC(=O)C(NC)c5ccc(O)c(c5)Oc5cc(O)c(Cl)c4c5)C(O)c4ccc(c(Cl)c4)Oc4cc3cc(c4O)Oc3c(Cl)cc(cc3Cl)C2O)c2ccc(O)c(c2)-c2c(O)cc(O)cc21 (centres unmarked) [Compound 2f, Ardacin aglycone-(2-Nmethylaminoethyl amide)] | 200 µg/mL | 200 µg/mL | 100 µg/mL | 200 µg/mL | 100 µg/mL | 200 µg/mL | 100 µg/mL | 100 µg/mL | 200 µg/mL | 100 µg/mL | 50 µg/mL | 100 µg/mL | 100 µg/mL | 0.1
